The values below come from patent US11090304B2 (Amgen Inc., priority 2018, dated 2021).

The structures appear in SMILES notation.

The target of one experiment is GDP-bound KRAS protein (aa 1-169), containing both G12C and C118A amino acid substitutions (Homo sapiens, UniProt P01116, C118A/G12C). In words: Coupled nucleotide exchange assay (SOS-mediated, AlphaScreen). In kind it is biochemical. The settings on record: 5 min compound pre-incubation. Background: In Alpha technology, singlet oxygen from a donor bead excites a nearby acceptor bead.
Chain of GDP-bound KRAS protein (aa 1-169), containing both G12C and C118A amino acid substitutions (P01116 1-169 isoform P01116-2 G12C/C118A): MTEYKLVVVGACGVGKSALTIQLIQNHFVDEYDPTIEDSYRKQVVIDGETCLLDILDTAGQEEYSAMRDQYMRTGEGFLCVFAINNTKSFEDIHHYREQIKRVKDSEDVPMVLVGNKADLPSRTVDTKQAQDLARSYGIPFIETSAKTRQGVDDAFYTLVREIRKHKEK
`C=CC(=O)N1CCN(c2nc(=O)n(-c3c(C)cnn3C(C)(C)C)c3nc(-c4ccccc4F)c(Cl)cc23)[C@@H](C)C1` [Example 55-38, 6-chloro-7-(2-fluorophenyl)-1-(4-methyl-1-(2-methyl-2-propanyl)-1H-pyrazol-5-yl)-4-((2S)-2-methyl-4-(2-propenoyl)-1-piperazinyl)pyrido[2.3-d]pyrimidin-2(1H)-one]: the “Coupled exchange IC50 (5 min)” value was 0.377 | nda μM.
Same read-out and setting: then `C=CC(=O)N1CCN(c2nc(=O)n(-c3cn[nH]c3C(C)C)c3nc(-c4ccccc4F)c(Cl)cc23)[C@@H](C)C1` [Example 55-42, 6-chloro-7-(2-fluorophenyl)-4-((2S)-2-methyl-4-(2-propenoyl)-1-piperazinyl)-1-(5-(2-propanyl)-1H-pyrazol-4-yl)pyrido[2,3-d]pyrimidin-2(1H)-one], with 0.351 | nda μM; and `C=CC(=O)N1CCN(c2nc(=O)n(-c3scnc3C3CC3)c3nc(-c4c(O)cccc4F)c(Cl)cc23)[C@@H](C)C1` [Example 56-3, 6-chloro-1-(4-cyclopropyl-1,3-thiazol-5-yl)-7-(2-fluoro-6-hydroxyphenyl)-4-((2S)-2-methyl-4-(2-propenoyl)-1-piperazinyl)pyrido[2,3-d]pyrimidin-2(1H)-one], with 3.85 | nda μM; and `C=CC(=O)N1CCN(c2nc(=O)n(-c3scnc3C3CC3)c3nc(-c4ccccc4F)c(Cl)cc23)[C@@H](C)C1` [Example 56-4, 6-chloro-1-(4-cyclopropyl-1,3-thiazol-5-yl)-7-(2-fluorophenyl)-4-((2S)-2-methyl-4-(2-propenoyl)-1-piperazinyl)pyrido[2,3-d]pyrimidin-2(1H)-one], with 5.32 | nda μM.
The same measure, in the same setting: for `C=CC(=O)N1CCN(c2nc(=O)n(-c3ccccc3C(C)C)c3nc(-c4cccc(OC(F)F)c4)c(Cl)cc23)[C@@H](C)C1` [Example 56-8, 6-chloro-7-(3-(difIuoromethoxy)phenyl)-4-((2S)-2-methyl-4-(2-propenoyl)-1-piperazinyl)-1-(2-(2-propanyl)phenyl)pyrido[2,3-d]pyrimidin-2(1H)-one] the value was 1.56 | nda μM.
With `C=CC(=O)N1CCN(c2nc(=O)n(-c3ccccc3C(C)C)c3nc(-c4c(O)cccc4F)c(F)cc23)[C@@H](C)C1` [Example 57-6, 6-fluoro-7-(2-fluoro-6-hydroxyphenyl)-4-((2S)-2-methyl-4-(2-propenoyl)-1-piperazinyl)-1-(2-(2-propanyl)phenyl)pyrido[2,3-d]pyrimidin-2(1H)-one], the “Coupled exchange IC50 (5 min)” value was 1.67 | nda μM.
Same read-out and setting: for `C=CC(=O)N1CCN(c2nc(=O)n(-c3c(C)ccnc3CC)c3nc(-c4ccccc4F)c(F)cc23)[C@@H](C)C1` [Example 57-16, 1-(2-ethyl-4-methyl-3-pyridinyl)-6-fluoro-7-(2-fluorophenyl)-4-((2S)-2-methyl-4-(2-propenoyl)-1-piperazinyl)pyrido[2,3-d]pyrimidin-2(1H)-one] the value was 3.79 | nda μM; for `C=CC(=O)N1CCN(c2nc(=O)n(-c3c(C)ccnc3C3CC3)c3nc(-c4ccccc4F)c(F)cc23)[C@@H](C)C1` [Example 57-18, 1-(2-cyclopropyl-4-methyl-3-pyridinyl)-6-fluoro-7-(2-fluorophenyl)-4-((2S)-2-methyl-4-(2-propenoyl)-1-piperazinyl)pyrido[2,3-d]pyrimidin-2(1H)-one], 1.73 | nda μM.
In the case of `C=CC(=O)N1CCN(c2nc(=O)n(-c3c(C)cccc3C3CC3)c3nc(-c4ccccc4F)c(F)cc23)[C@@H](C)C1` [Example 58-14, 1-(2-cyclopropyl-6-methylphenyl)-6-fluoro-7-(2-fluorophenyl)-4-((2S)-2-methyl-4-(2-propenoyl)-1-piperazinyl)pyrido[2,3-d]pyrimidin-2(1H)-one], the “Coupled exchange IC50 (5 min)” value is reported as 2.45 | nda μM.
Same read-out and setting: for `C=CC(=O)N1CCN(c2nc(=O)n(-c3ccccc3C(C)(C)C)c3nc(-c4ccccc4F)c(F)cc23)[C@@H](C)C1` [Example 58-17, 6-fluoro-7-(2-fluorophenyl)-1-(2-(2-methyl-2-propanyl)phenyl)-4-((2S)-2-methyl-4-(2-propenoyl)-1-piperazinyl)pyrido[2,3-d]pyrimidin-2(1H)-one] the value was 1.68 | nda μM; for `C=CC(=O)N1CCN(c2nc(=O)n(-c3c(C4CC4)ccnc3C)c3nc(-c4ccccc4F)c(F)cc23)[C@@H](C)C1` [Example 58-20, 1-(4-cyclopropyl-2-methyl-3-pyridinyl)-6-fluoro-7-(2-fluorophenyl)-4-((2S)-2-methyl-4-(2-propenoyl)-1-piperazinyl)pyrido[2,3-d]pyrimidin-2(1H)-one], 1.96 | nda μM; for `C=CC(=O)N1CCN(c2nc(=O)n(-c3c(C)ccnc3C(C)C)c3nc(Cl)c(F)cc23)[C@@H](C)C1` [Example 58-21, 7-chloro-6-fluoro-1-(4-methyl-2-(2-propanyl)-3-pyridinyl)-4-((2S)-2-methyl-4-(2-propenoyl)-4-piperazinyl)pyrido[2,3-d]pyrimidin-2(1H)-one], 17.5 | nda μM.
Same read-out and setting: for `C=CC(=O)N1CCN(c2nc(=O)n(-c3c(CC)ncnc3CC)c3nc(-c4ccccc4F)c(F)cc23)[C@@H](C)C1` [Example 58-22, 1-(4,6-diethyl-5-pyrimidinyl)-6-fluoro-7-(2-fluorophenyl)-4-((2S)-2-methyl-4-(2-propenoyl)-1-piperazinyl)pyrido[2,3-d]pyrimidin-2(1H)-one] the value was 2.71 | nda μM; for `C=CC(=O)N1CCN(c2nc(=O)n(-c3ccccc3C3(C(F)(F)F)CC3)c3nc(-c4c(O)cccc4F)c(F)cc23)[C@@H](C)C1` [Example 59-1, 6-Fluoro-7-(2-fluoro-6-hydroxyphenyl)-4-((2S)-2-methyl-4-(2-propenoyl)-1-piperazinyl)-1-(2-(1-(trifluoromethyl)cyclopropyl)phenyl)pyrido[2,3-d]pyrimidin-2(1H)-one], 2.98 | nda μM.
Still for that read-out and setting: for `C=CC(=O)N1CCN(c2nc(=O)n(-c3c(C4CC4)ncnc3C3CC3)c3nc(-c4ccccc4F)c(F)cc23)[C@@H](C)C1` [Example 59-5, 1-(4,6-dicyclopropyl-5-pyrimidinyl)-6-fluoro-7-(2-fluorophenyl)-4-((2S)-2-methyl-4-(2-propenoyl)-1-piperazinyl)pyrido[2,3-d]pyrimidin-2(1H)-one] the value was 0.501 | nda μM; for `C=CC(=O)N1CCN(c2nc(=O)n(-c3ccccc3C)c3nc(Cl)c(Cl)cc23)[C@@H](C)C1` [Example 60-12, 6,7-dichloro-1-(2-methylphenyl)-4-((2S)-2-methyl-4-(2-propenoyl)-1-piperazinyl)pyrido[2,3-d]pyrimidin-2(1H)-one], 22.2 | nda μM.
In the case of `C=CC(=O)N1CCN(c2nc(=O)n(-c3ccccc3C)c3nc(OCCCC)c(Cl)cc23)[C@@H](C)C1` [Example 60-13, 7-butoxy-6-chloro-1-(2-methylphenyl)-4-((2S)-2-methyl-4-(2-propenoyl)-1-piperazinyl)pyrido[2,3-d]pyrimidin-2(1H)-one], the “Coupled exchange IC50 (5 min)” value is recorded as 85 | nda μM.
The same measure, in the same setting: then `C=CC(=O)N1CCN(c2nc(=O)n(-c3c(F)cccc3F)c3nc(Cl)c(Cl)cc23)[C@@H](C)C1` [Example 60-16, 6,7-dichloro-1-(2,6-difluorophenyl)-4-((2S)-2-Methyl-4-(2-propenoyl)-1-piperazinyl)pyrido[2,3-d]pyrimidin-2(1H)-one], with 46.1 | nda μM; and `C=CC(=O)N1CCN(c2nc(=O)n(-c3c(F)cccc3F)c3nc(-c4c(O)cccc4F)c(Cl)cc23)[C@@H](C)C1` [Example 60-17, 6-chloro-1-(2,6-difluorophenyl)-7-(2-fluoro-6-hydroxyphenyl)-4-((2S)-2-methyl-4-(2-propenoyl)-1-piperazinyl)pyrido[2,3-d]pyrimidin-2(1H)-one], with 5.74 | nda μM.
In the case of `C=CC(=O)N1CCN(c2nc(=O)n(CC3CCN(C(=O)OC(C)(C)C)CC3)c3nc(Cl)c(Cl)cc23)[C@@H](C)C1` [Example 60-25, 2-methyl-2-propanyl 4-((6,7-dichloro-4-((2S)-2-methyl-4-(2-propenoyl)-1-piperazinyl)-2-oxopyrido[2,3-d]pyrimidin-1(2H)-yl)methyl)-1-piperidinecarboxylate], the “Coupled exchange IC50 (5 min)” value is 25.5 | nda μM.
The same measure, in the same setting: then `C=CC(=O)N1CCN(c2nc(=O)n(-c3ccccc3C(C)O)c3nc(-c4c(O)cccc4F)c(Cl)cc23)[C@@H](C)C1` (stereo partly drawn) [Example 60-27, 6-chloro-7-(2-fluoro-6-hydroxyphenyl)-1-(2-((1R)-1-hydroxyethyl)phenyl)-4-((2S)-2-methyl-4-(2-propenoyl)-1-piperazinyl)pyrido[2,3-d]pyrimidin-2(1H)-one | 6-chloro-7-(2-fluoro-6-hydroxyphenyl)-1-(2-((1S)-1-hydroxyethyl)phenyl)-4-((2S)-2-methyl-4-(2-propenoyl)-1-piperazinyl)pyrido[2,3-d]pyrimidin-2(1H)-one], with 1.3 | nda μM; and `C=CC(=O)N1CCN(c2nc(=O)n(-c3c(C)cccc3C(C)C)c3nc(-c4c(O)cccc4F)c(F)cc23)C[C@@H]1C` [Example 63-1, 6-Fluoro-7-(2-fluoro-6-hydroxyphenyl)-1-(2-methyl-6-(2-propanyl)phenyl)-4-((3S)-3-methyl-4-(2-propenoyl)-1-piperazinyl)pyrido[2,3-d]pyrimidin-2(1H)-one], with 2.15 | nda μM.

Still in this experiment, the particulars now being: 2 h compound pre-incubation.
For `C=CC(=O)N1CCN(c2nc(=O)n(CC3(C(F)(F)F)CC3)c3nc(Cl)c(Cl)cc23)CC1` [Example 60-2, 6,7-dichloro-4-(4-(2-propenoyl)-1-piperazinyl)-1-((1-(trifluoromethyl)cyclopropyl)methyl)pyrido[2,3-d]pyrimidin-2(1H)-one], the “Coupled exchange IC50 (2 h)” value is “nda | 7.62 μM”.
Same read-out and setting: then `C=CC(=O)N1CCN(c2nc(=O)n(Cc3ccccn3)c3nc(-c4c(O)cccc4F)c(Cl)cc23)CC1` [Example 60-7], with “nda | 26.9 μM”.
